Measurements as given in US7595395B2, “Gabaergic agents to treat memory deficits” (priority 2005, dated 2009).
Like-named read-outs stand apart in the source and are kept apart here.

How the values were obtained:
[1] = target: T1, α2β3γ2 benzodiazepine receptor GABA(A) isoform (UniProt P18507+P47869); test: Radioligand competition binding, α2β3γ2 BzR/GABA(A) isoform; set-up: species or system human and rat
T1 sequence (P18507 1-475): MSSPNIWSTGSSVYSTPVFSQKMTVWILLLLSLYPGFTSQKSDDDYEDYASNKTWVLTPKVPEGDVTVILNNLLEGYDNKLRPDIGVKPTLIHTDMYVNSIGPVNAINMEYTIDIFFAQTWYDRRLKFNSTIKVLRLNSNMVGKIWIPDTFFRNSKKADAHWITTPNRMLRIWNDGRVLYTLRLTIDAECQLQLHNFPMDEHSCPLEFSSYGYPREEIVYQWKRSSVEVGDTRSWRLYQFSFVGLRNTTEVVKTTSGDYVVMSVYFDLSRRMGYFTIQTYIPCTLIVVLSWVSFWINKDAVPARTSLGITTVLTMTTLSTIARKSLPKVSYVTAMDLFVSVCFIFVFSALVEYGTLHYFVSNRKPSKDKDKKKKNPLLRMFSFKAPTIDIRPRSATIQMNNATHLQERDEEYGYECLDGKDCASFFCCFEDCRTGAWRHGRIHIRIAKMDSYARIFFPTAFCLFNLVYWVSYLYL
T1 sequence (P47869 1-451): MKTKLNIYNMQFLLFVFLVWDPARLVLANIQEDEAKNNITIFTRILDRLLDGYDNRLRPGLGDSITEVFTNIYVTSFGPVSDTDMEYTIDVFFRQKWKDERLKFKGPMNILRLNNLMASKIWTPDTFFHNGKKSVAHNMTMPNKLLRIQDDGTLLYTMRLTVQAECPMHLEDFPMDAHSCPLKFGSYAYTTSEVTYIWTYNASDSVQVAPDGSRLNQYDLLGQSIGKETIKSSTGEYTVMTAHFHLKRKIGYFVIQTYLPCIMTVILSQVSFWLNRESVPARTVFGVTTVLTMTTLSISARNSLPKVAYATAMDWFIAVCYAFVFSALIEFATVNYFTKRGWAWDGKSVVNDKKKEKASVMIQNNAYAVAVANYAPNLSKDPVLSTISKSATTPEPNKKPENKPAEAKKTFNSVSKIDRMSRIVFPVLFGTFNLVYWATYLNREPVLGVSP
Protocol: (§1) The affinity of all ligands at the 6 major recombinant GABAA/BzR subtypes was measured by competition for [^3H]Ro15-1788 binding to HEK-T cells expressing both human and rat GABAA/Bz receptors of composition α1β2γ2 (α1), α2β2γ2 (α2), α3β2γ2 (α3), α4β2γ2 (α4), α5β2γ2 (α5) and α6β2γ2 (α6). It is well known that the β2 and β3 subunits can be interchanged with no effect on Bz ligand affinity or efficacy. […] These studies are similar to those performed in the laboratory of Bryan Roth who has already expressed the receptors employing the work of Kucken et. al. and Gray et. al.
(§2) In brief, for membrane preparations, the cells were scraped on to the ice and diluted into 5 mL of phosphate buffered saline (pH=7.40) and cells pelleted by centrifugation for 5 min. at 4° C. The pellet was resuspended in 1 mL of 50 mM Tris-acetate buffer (pH 7.4) and centrifuged at 18,000 g for 20 min. […] Each pellet were diluted to 6 mL and then 100 μL of membranes were incubated with approximately 1 nM final concentration of [^3H]Ro 15-1788 in a total volume of 250 μL together with serial dilutions of test compound for 90 min. on ice. The membranes were harvested in polyethyleneimine-pretreated Whatman GF/C filters and after drying and addition of scintillation cocktail, counted in a scintillation counter. The cpm retained on the filters was plotted against log concentration (M) and fitted to one site competition equation to obtain the Ki using Graphpad Prizm (V4.0) using the Cheng-Prusoff approximation.

[2] = target: α6β3γ2 benzodiazepine receptor GABA(A) isoform (UniProt P18507+Q16445); test: Radioligand competition binding, α6β3γ2 BzR/GABA(A) isoform; set-up: species or system human and rat
Protocol: as §1, §2

[3] = target: T2, α1β3γ2 benzodiazepine receptor GABA(A) isoform (UniProt P14867+P18507); test: Radioligand competition binding, α1β3γ2 BzR/GABA(A) isoform; set-up: Ki α1; means of two determinations; Ki α1; α1; species or system human and rat
T2 sequence (P14867 1-456): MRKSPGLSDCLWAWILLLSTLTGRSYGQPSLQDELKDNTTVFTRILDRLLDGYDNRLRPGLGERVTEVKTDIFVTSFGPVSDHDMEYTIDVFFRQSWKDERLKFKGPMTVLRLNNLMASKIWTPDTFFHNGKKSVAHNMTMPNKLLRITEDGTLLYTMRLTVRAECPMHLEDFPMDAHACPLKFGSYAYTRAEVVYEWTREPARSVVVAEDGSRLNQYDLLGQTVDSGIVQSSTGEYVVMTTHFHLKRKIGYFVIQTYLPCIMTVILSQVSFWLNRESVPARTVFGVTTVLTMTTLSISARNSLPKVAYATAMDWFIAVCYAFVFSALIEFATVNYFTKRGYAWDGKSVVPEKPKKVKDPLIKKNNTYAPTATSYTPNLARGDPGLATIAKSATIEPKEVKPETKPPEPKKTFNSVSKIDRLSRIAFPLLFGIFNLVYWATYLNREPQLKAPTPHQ
T2 sequence (P18507 1-475): T1 sequence (P18507 1-475)
Protocol: as §1, §2

α5β3γ2 GABAA receptor = α5β3γ2 GABAA receptor (Rattus norvegicus, UniProt P18508+P19969); test: Two-electrode voltage clamp in Xenopus oocytes, α5β3γ2; conditions: oocytes
[4] = target: T3, α5β3γ2 benzodiazepine receptor GABA(A) isoform (UniProt P18507+P31644); test: Radioligand competition binding, α5β3γ2 BzR/GABA(A) isoform; set-up: Ki α5; means of two determinations; Ki α5; α5; other: text; species or system human and rat
T3 sequence (P18507 1-475): T1 sequence (P18507 1-475)
T3 sequence (P31644 1-462): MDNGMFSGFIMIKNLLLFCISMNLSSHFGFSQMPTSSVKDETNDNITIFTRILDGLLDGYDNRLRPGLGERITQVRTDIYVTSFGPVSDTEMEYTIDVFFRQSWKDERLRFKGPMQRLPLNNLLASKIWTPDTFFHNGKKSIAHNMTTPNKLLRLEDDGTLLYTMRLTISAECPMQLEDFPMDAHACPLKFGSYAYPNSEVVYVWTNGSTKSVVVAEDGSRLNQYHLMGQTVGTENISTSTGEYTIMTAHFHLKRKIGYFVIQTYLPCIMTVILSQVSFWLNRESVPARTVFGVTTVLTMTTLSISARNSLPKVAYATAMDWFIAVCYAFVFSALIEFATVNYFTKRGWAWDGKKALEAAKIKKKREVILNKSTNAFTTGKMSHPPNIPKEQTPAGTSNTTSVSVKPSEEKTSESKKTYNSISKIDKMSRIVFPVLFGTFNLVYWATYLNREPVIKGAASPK

[5] = read-out: Ki α2, Table I, means of two determinations
[6] = read-out: α2, untitled table of lead compounds, unit inferred
[7] = read-out: Ki α6, Table I, means of two determinations
[8] = read-out: α6, untitled table of lead compounds, unit inferred
[9] = read-out: Ki α1, Table I, means of two determinations
[10] = read-out: α1, untitled table of lead compounds, unit inferred
[11] = read-out: Ki α5, Table I, means of two determinations
[12] = read-out: α5, untitled table of lead compounds, unit inferred

Sequence of α5β3γ2 GABAA receptor (P19969 26-464): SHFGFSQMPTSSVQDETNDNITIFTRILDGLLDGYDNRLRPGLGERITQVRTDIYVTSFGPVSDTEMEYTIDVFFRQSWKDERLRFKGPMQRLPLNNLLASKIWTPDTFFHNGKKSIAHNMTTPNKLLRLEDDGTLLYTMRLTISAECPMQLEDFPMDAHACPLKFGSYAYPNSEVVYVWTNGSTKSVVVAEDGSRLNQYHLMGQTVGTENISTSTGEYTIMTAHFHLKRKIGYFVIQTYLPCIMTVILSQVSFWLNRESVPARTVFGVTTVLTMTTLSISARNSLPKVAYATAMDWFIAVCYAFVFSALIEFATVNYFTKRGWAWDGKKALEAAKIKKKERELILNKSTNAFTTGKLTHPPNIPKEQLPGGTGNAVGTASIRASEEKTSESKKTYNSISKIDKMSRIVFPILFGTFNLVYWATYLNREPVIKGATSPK
Sequence of α5β3γ2 GABAA receptor (P63079 26-473 partner): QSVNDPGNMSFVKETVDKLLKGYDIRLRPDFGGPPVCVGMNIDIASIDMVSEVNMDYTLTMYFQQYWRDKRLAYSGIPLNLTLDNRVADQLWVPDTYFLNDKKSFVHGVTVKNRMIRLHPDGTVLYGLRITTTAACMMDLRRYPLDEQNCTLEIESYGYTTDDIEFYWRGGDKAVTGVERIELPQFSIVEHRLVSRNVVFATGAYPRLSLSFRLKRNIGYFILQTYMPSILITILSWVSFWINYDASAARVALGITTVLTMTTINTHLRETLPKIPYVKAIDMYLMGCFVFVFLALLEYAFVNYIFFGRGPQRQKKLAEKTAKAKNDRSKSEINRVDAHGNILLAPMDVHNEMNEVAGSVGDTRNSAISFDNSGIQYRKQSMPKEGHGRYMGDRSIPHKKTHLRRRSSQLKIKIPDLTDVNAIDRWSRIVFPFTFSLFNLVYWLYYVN
Sequence of α5β3γ2 GABAA receptor (P18508 39-466): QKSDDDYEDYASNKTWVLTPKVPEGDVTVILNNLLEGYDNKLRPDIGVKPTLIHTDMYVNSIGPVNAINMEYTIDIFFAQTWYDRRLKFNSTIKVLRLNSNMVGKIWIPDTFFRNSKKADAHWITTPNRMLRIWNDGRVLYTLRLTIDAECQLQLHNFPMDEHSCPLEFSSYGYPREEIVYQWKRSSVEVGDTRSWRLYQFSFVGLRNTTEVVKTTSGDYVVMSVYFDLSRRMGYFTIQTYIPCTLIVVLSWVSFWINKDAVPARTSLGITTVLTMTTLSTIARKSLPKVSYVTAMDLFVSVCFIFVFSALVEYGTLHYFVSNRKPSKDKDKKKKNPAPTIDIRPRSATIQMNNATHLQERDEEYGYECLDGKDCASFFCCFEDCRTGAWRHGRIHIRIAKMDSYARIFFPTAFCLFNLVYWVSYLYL

| SMILES | Ki [1, 5] | Ki [1, 6] | Ki [2, 7] | Ki [2, 8] | Ki [3, 9] | Ki [3, 10] | efficacy / modulation of GABA elicited currents at α5 (in words) (α5β3γ2 GABAA receptor) | Ki [4, 11] | Ki ([4]; read-out: binding potency at α5 subtypes) | Ki [4, 12] | Ki ([1]; read-out: Ki α2, Table 2, means of two determinations) | Ki ([2]; read-out: Ki α6, Table 2, means of two determinations) | Ki ([3]; read-out: Ki α1, Table 2, means of two determinations) | efficacy / modulation of GABA elicited currents at α5 (in words) (α5β3γ2 GABAA receptor; listed as XLi-356) | efficacy / modulation of GABA elicited currents at α5 (in words) (α5β3γ2 GABAA receptor; listed as Xli356) | Ki ([4]; read-out: Ki α5, Table 2, means of two determinations) |
| --- | --- | --- | --- | --- | --- | --- | --- | --- | --- | --- | --- | --- | --- | --- | --- | --- |
| CCOC(=O)c1ncn2c1CN=C(c1ccccc1)c1cc(-c3ccccc3)ccc1-2 [DM-I-81, Ethyl 8-phenyl-6-phenyl-4H-benzo[f]imidazo[1,5-a][1,4]diazepine-3-carboxylate] | > 2000 nM | > 2000 nM | > 2000 nM | > 2000 nM | > 2000 nM | > 2000 nM | moderate agonist activity | 176 nM | 174 nM | 176 nM | – | – | – | – | – | – |
| COCc1ncn2c1CN(C)C(=O)c1cc(Cl)ccc1-2 [PWZ-029, methyl(8-chloro-5,6-dihydro-5-methyl-6-oxo-4H-imidazo[1,5-α][1,4]benzodiazepin-3-yl)methyl ether] | > 300 nM | > 300 nM | > 300 nM | > 300 nM | > 300 nM | > 300 nM | selective inverse agonist | 38.8 nM | – | 38.8 nM | – | – | – | – | – | – |
| CCc1ccc2c(c1)C(=O)N(C)Cc1c(C(=O)OCCCOC(=O)c3ncn4c3CN(C)C(=O)c3cc(CC)ccc3-4)ncn1-2 [XLi356, 1,3-Bis(8-ethyl-5,6-dihydro-5-methyl-6-oxo-4H-imidazo[1,5a][1,4]benzodiazepine-3-carboxy)propyl diester] | – | 5980 nM | – | – | – | 2380 nM | – | – | – | 107 nM | 5980 nM | 5000 nM | 2380 nM | clear agonist | appears to be an agonist | 107 nM |
